The assay has as its target T1, recombinant cGAS (aa147-522) (Homo sapiens, UniProt Q8N884).
T1 construct: recombinant cGAS (aa147-522); His6-SUMO (N, cleaved yes); made in house; host or cells: E. coli BL21/pLys
The assay can be described thus: In vitro assay for inhibition of cGAS activity (ATP consumption, Kinase Glo). The settings on record: 37° C. 20 minutes, read-out: Activity (Inhibition of cGAS enzyme activity in vitro, IC50). The format is biochemical. As for the experimental part:
cDNA encoding full-length or amino acids 147-520 of human cGAS is inserted into a modified pET28a vector containing an in-frame His6-SUMO tag. The E. coli strain BL21/pLys harboring the plasmid is induced with 0.5 mM IPTG at 18° C. overnight. His6-SUMO tag was removed by a SUMO proease following purification of the HiS-SUMO-cGAS as described previously (Sun et al, 2013, Science 339, 786).
A40 μL mixture containing 1.5 ng/μL of recombinant cGAS (aa147-522) and serial dilutions of a test compound or DMSO was added to a 96-well plate and incubated at 37° C. for 20 minutes. At the end of reaction, 20 μL of Kinase Glo (Promega) was added and chemiluminescence measured with a luminometer. Inhibitory effect of a compound is evaluated by plotting percentage of ATP consumption against logarithm of compound concentrations. IC50 value was calculated using Graphpad (Sigma).
For orientation: In Kinase-Glo more light means more ATP remaining.
T1 sequence (Q8N884 147-522): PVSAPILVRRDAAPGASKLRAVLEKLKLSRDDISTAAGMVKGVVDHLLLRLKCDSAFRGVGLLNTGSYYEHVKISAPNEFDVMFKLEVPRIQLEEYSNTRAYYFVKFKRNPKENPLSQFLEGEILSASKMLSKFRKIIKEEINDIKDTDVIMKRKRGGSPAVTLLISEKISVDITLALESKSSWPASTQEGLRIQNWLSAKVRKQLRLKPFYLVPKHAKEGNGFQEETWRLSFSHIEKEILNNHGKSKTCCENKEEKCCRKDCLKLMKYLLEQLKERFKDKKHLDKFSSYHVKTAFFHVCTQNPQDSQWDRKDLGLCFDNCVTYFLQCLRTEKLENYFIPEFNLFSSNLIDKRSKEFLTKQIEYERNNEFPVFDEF
Consider `CSc1ccc(CCc2cc(/C=C3\SC(=O)N(C)C3=O)c(Br)cc2O)cc1` [ExB15], for which the IC50 (as a rule, the concentration that inhibits the measured activity by half) was in the range of 0.5 to 10 µM. Under `COc1cc(/C=C2\Sc3ncccc3C2=O)c(Br)c(Cl)c1O` [Ex46] stands no more than 0.5 µM; under `CN1C(=O)S/C(=C\c2cc(OCc3cnc(O)nc3)c(O)cc2Br)C1=O` [Ex217], 0.5 to 10 µM. Take `O=C1NC(=O)/C(=C/c2ccncc2)N1` [Ex14]: the IC50 fell in the range of 0.5 to 10 µM. Consider `COc1cc(/C=C/C=C2\SC(=O)N(C)C2=O)c(Br)cc1O` [Ex37], for which the IC50 is 0.5 to 10 µM.

With `CC(Cc1cnc(N)nc1)Oc1cc(/C=C2\SC(=O)N(C)C2=O)c(Br)c(F)c1O` (stereo not drawn) [ExB9], the IC50 was in the range of 0.5 to 10 µM. With `CN1C(=O)S/C(=C\c2cc(OCC3CCN(C(=O)c4cccnc4)CC3)c(O)cc2Br)C1=O` [Ex129], the IC50 lay in the range of 0.5 to 10 µM.

For the compound `CC(Oc1cc(/C=C2\SC(=O)N(C)C2=O)c(Br)cc1O)c1cnc(NCCO)nc1` (stereo not drawn) [Ex181], the IC50 lay within 0.5 to 10 µM.

Take `Cc1ncc(COc2cc(/C=C3\Sc4ncccc4C3=O)c(Br)cc2O)c(C)n1` [Ex120]: the 50% inhibitory concentration (IC50) was no more than 0.5 µM. Under `O=C1NC(=O)/C(=C/c2ccncc2C(F)(F)F)S1` [Ex4] stands no less than 10 µM; under `CN1C(=O)S/C(=C\c2cc(Oc3cccc4ncccc34)c(O)cc2Br)C1=O` [ExB5], no less than 10 µM; under `CN1C(=O)S/C(=C\c2cc(OCc3ccccn3)c(O)cc2Br)C1=O` [Ex89], 0.5 to 10 µM. In the case of `COc1cc(/C=C2\SC(=O)N(C)C2=O)c(Br)cc1NS(=O)(=O)C(F)(F)F` [Ex60], the IC50 is 0.5 to 10 µM. As to `O=C1/C(=C/c2cc(OCc3ccncc3)c(O)cc2Br)Sc2ncccc21` [Ex72], the IC50 is no more than 0.5 µM. Regarding `CCC/N=C1/S/C(=C\c2cc(OC)c(O)cc2Br)C(=O)N1C` [ExB24], the IC50 was no less than 10 µM. Then `COc1cc2c(cc1O)CC/C2=C1/SC(=O)N(C)C1=O` [Ex13], with no less than 10 µM. In the case of `CN1C(=O)S/C(=C\c2cc3c(Cc4cnc(N)nc4)c[nH]c3cc2Br)C1=O` [Ex208], the IC50 was in the range of 0.5 to 10 µM. In the case of `COc1cc(/C=C2\Sc3ncccc3C2=O)c(Br)c(Br)c1O` [Ex47], the IC50 fell in the range of 0.5 to 10 µM. Then `O=C1NC(=O)/C(=C/c2ccncc2)S1` [Ex2], with no less than 10 µM; and `COc1cc(/C=C2\Sc3cnccc3C2=O)c(Br)cc1O` [Ex49], with no more than 0.5 µM; and `CN1C(=O)S/C(=C\c2cc(Oc3ccc(-c4cccnc4)cc3)c(O)cc2Br)C1=O` [ExB28], with no less than 10 µM. For `CN1CCC(COc2cc(/C=C3\SC(=O)N(C)C3=O)c(Br)cc2O)CC1` [Ex126], the IC50 lay within 0.5 to 10 µM. Take `CN1C(=O)S/C(=C\c2cc(OCc3cnc(N4CCOCC4)nc3)c(O)cc2Br)C1=O` [Ex166]: the IC50 is no less than 10 µM. Under `CN1C(=O)S/C(=C\c2cc(OCC3CCN(C(=O)c4ccccc4)CC3)c(O)cc2Br)C1=O` [Ex127] stands 0.5 to 10 µM; under `CN1C(=O)S/C(=C\c2cc(OC(F)(F)F)c(Oc3cnc(N)s3)cc2Br)C1=O` [ExB33], no less than 10 µM; under `CNc1ncc(COc2cc(/C=C3\SC(=O)N(C)C3=O)c(Br)c(F)c2O)cn1` [Ex187], no more than 0.5 µM.

With `CN1C(=O)S/C(=C\c2cc(O)c(O)cc2F)C1=O` [Ex10], the IC50 is no less than 10 µM.

Consider `CC(=O)Nc1ncc(S(=O)(=O)Nc2cc(Br)c(/C=C3\SC(=O)N(C)C3=O)cc2OCc2ccccc2)s1` [Ex62], for which the IC50 was 0.5 to 10 µM.

With `CC(C)C(=O)Nc1cncc(COc2cc(/C=C3\SC(=O)N(C)C3=O)c(Br)cc2O)c1` [Ex226], the IC50 is no less than 10 µM. Consider `CN1C(=O)S/C(=C\c2cc(OCc3cnc([S+](C)[O-])nc3Cl)c(O)cc2Br)C1=O` (stereo not drawn) [Ex214], for which the IC50 is 0.5 to 10 µM. Under `CN1C(=O)S/C(=C\c2cc(Oc3ccccc3)c(O)cc2Br)C1=O` [Ex27] stands 0.5 to 10 µM; under `O=C1NC(=O)/C(=C/c2cnccn2)S1` [Ex7], no less than 10 µM; under `CN1C(=O)S/C(=C\c2cc(OCc3cnc(N4CCCC4)nc3)c(O)cc2Br)C1=O` [Ex163], no less than 10 µM. Under `COc1cc(/C=C2\Sc3nccnc3C2=O)c(Br)cc1O` [Ex50] stands 0.5 to 10 µM; under `COc1cc(/C=C2\SC(=O)N(C)C2=O)c(Br)cc1Oc1ccnc2ccccc12` [Ex204], 0.5 to 10 µM. Consider `CN1C(=O)S/C(=C\c2cc(OCc3cncc(NC(=O)c4ccncc4)c3)c(O)cc2Br)C1=O` [Ex225], for which the IC50 was no less than 10 µM. Take `CN1C(=O)S/C(=C\c2cc(OCc3ccc(NC(=O)c4cccnc4)nc3)c(O)cc2Br)C1=O` [Ex55]: the IC50 lay in the range of 0.5 to 10 µM.

Take `CN1C(=O)S/C(=C\c2cc3c(-c4ccc(N)cc4)c[nH]c3cc2Br)C1=O` [ExB14]: the IC50 was 0.5 to 10 µM. `CN1C(=O)S/C(=C\c2cc(OCc3ccn(Cc4ccccc4)c(=O)c3)c(O)cc2Br)C1=O` [Ex91]: the IC50 fell in the range of 0.5 to 10 µM. On to `CN1C(=O)S/C(=C\c2cc(OCc3ccc4cccnc4c3)c(O)cc2Br)C1=O` [Ex175], for which the IC50 was 0.5 to 10 µM. As to `COc1cc(/C=C2\SC(=O)N(C)C2=O)c(Br)cc1-c1nn[nH]n1` [Ex35], the IC50 was 0.5 to 10 µM. As for `CN1C(=O)S/C(=C\c2cc(OCc3cnc(N)nc3C3CC3)c(O)c(F)c2Br)C1=O` [Ex109], the IC50 was 0.5 to 10 µM. In the case of `CN1C(=O)S/C(=C\c2cc(OCCc3ccncc3)c(O)cc2Br)C1=O` [Ex179], the IC50 lay in the range of 0.5 to 10 µM. Consider `COc1nc(S(C)(=O)=O)ncc1COc1cc(/C=C2\SC(=O)N(C)C2=O)c(Br)cc1O` [Ex220], for which the IC50 lay in the range of 0.5 to 10 µM. For the compound `CN1C(=O)S/C(=C\c2cc(OCc3cncc(N)c3)c(O)cc2Br)C1=O` [Ex132], the IC50 lay within 0.5 to 10 µM. `CN1C(=O)S/C(=C\c2cc(OCc3cc[nH]c(=O)c3)c(O)cc2Br)C1=O` [Ex134]: the IC50 lay in the range of 0.5 to 10 µM. With `CN1C(=O)S/C(=C\c2cc3cc[nH]c3cc2Br)C1=O` [Ex66], the IC50 lay in the range of 0.5 to 10 µM. Consider `COc1cc(/C=C2\Sc3ncccc3C2=O)c(C)cc1O` [Ex76], for which the IC50 lay within 0.5 to 10 µM. With `COc1cc(/C(Br)=C2\SC(=O)N(C)C2=O)c(Br)cc1O` [Ex20], the IC50 is no less than 10 µM. On to `C/C(=C1/SC(=O)NC1=O)c1ccncc1` [Ex12], for which the IC50 is no more than 0.5 µM.

Take `CN1C(=O)S/C(=C\c2cc(Oc3cccc(O)c3N)c(O)cc2Br)C1=O` [ExB12]: the IC50 was no less than 10 µM. Take `CN1C(=O)S/C(=C\c2cc(OCc3cnc(C4CCNCC4)nc3)c(O)cc2Br)C1=O` [Ex95]: the IC50 was in the range of 0.5 to 10 µM. Take `O=C1NC(=O)/C(=C/c2cncnc2)S1` [Ex8]: the IC50 was no less than 10 µM. Then `CN1C(=O)S/C(=C\c2cc3nn[nH]c3cc2Br)C1=O` [Ex36], with no less than 10 µM; and `COc1nc([S+](C)[O-])ncc1COc1cc(/C=C2\SC(=O)N(C)C2=O)c(Br)cc1O` (stereo not drawn) [Ex212], with 0.5 to 10 µM; and `CSc1ncncc1C(=O)C(C)Oc1cc(/C=C2\SC(=O)N(C)C2=O)c(Br)c(F)c1O` (stereo not drawn) [ExB36], with no less than 10 µM. Take `CC(C)Nc1ncc(COc2cc(/C=C3\SC(=O)N(C)C3=O)c(Br)cc2O)cn1` [Ex150]: the IC50 was 0.5 to 10 µM.

As to `N=C1NC(=O)/C(=C/c2ccncc2)S1` [Ex9], the IC50 was no less than 10 µM. Then `O=C1/C(=C/c2cc3nn[nH]c3cc2Br)Sc2ncccc21` [Ex78], with no more than 0.5 µM; and `CN1C(=O)S/C(=C\c2cc(OCc3cnc(-c4cccnc4)nc3)c(O)cc2Br)C1=O` [Ex96], with 0.5 to 10 µM.

The record behind these values is patent US12065416B2, “cGAS antagonist compounds” (IMMUNESENSOR THERAPEUTICS, INC., priority 2016, dated 2024).
